What was measured:
[1] = system: Salinispora tropica CNB476; assay: Production of Salinosporamide A and analogs in shake flask culture; titers by HPLC; details: Ex.21, CoCl2·6H2O 208 μg/L seed, 52 μg/L production vs no cobalt
Protocol: (§1) To determine the production profile of Low Sodium Frozen Stocks cultures of CNB440, CNB476 and NPS21184 grown up in low sodium production medium, 5 mL each of the 48-hour second seed culture samples of CNB476 and NPS21184 was used to inoculate 100 mL of production medium having the same composition as the seed medium in a 500-mL Erlenmeyer flasks. For CNB440, 5 mL of the 72 hour second seed culture sample was used to inoculate 100 mL of production medium having the same composition as the seed medium in a 500-mL Erlenmeyer flasks. The production cultures were incubated at 250 rpm and 28° C.
(§2) 3.5 mL of the fermentation culture was mixed with equal volume of EtOAc in an extraction tube to extract the various metabolites from the production culture. The mixture was shaken on the shaker for 1 hr. […]
(§3) The production of Salinosporamide A, NPI-0047 and NPI-2065 was monitored by Agilent HP1100 HPLC using an ACE C-18 reversed-phase column (4.6×150 mm), and solvent system consisting of water (0.01% TFA) as solvent A and acetonitrile (0.01% TFA) as solvent B. The elution was started at 100% solvent A for 1 min, 100% solvent A to 35% solvent A gradient in 7 min, held at 35% solvent A for 11 min, 35% solvent A to 100% solvent B in 8 min and held at 100% solvent B for 9 min at a flow rate of 1.5 mL/min with the detector wavelength set at 210 nm and column temperature 35° C. […]

[2] = system: Salinispora tropica CNB440; assay: as above; details: Ex.21, CoCl2·6H2O 208 μg/L seed, 52 μg/L production vs no cobalt
Protocol: as §1, §2, §3

[3] = system: Salinispora tropica NPS021184; assay: Production of Salinosporamide A and analogs in 42 L fermentor culture; titers by HPLC; details: for decrease of production: Ex.3, chemically defined salt formulation replacing INSTANT OCEAN, with cobalt
Protocol: Seed cultures were prepared by inoculating frozen stock of Salinispora tropica NPS021184 into seed medium. For 10 mL seed medium in a 50-mL culture tube, one frozen stock (˜1.5 mL) was used for inoculation. For 100 mL seed medium in a 500-mL Erlenmeyer flask, two frozen stocks (˜3 mL total) were used for inoculation.
The first seed cultures (either 10 mL medium in a 50-mL tube or 100 mL medium in a 500-mL Erlenmeyer flask) were incubated at 250 rpm and 28° C. for 3 to 4 days before inoculating (5% inoculum) into second seed medium with the same salt composition as used for the first seed cultures. After incubating at 250 rpm and 28° C. for 2 days, the second seed cultures (5% inoculum) were inoculated into an additional third seed culture (400 mL medium in 2.8 L Fembach flask) with the same medium, salt composition and incubation time as the second seed cultures, before inoculating into production media in the fermentor (26 L medium in a 42 L B. Braun Biostat-C fermentor).
The production medium was then supplemented with either INSTANT OCEAN® commercial salt formulation or a chemically defined salt formulation based on the salt supplement used in the seed stages. The chemically defined salt formulation consisted of: […]
The production medium for fermentation was also supplemented with CoCl2.6H2O at a concentration of 52 μg/L. No CoCl2.6H2O was added to the production medium in control samples.
3.5 mL of the fermentation culture was mixed with equal volume of EtOAc in an extraction tube to extract the various metabolites from the production culture.
(§4) The mixture was shaken for 1 hr. An aliquot of the extract (1 mL) was removed and dried under a stream of nitrogen. The dried extract was stored at −20° C. freezer before HPLC analysis. The dried extract was resuspended in 320 μL DMSO and injected into HPLC using the 00TF14 method for analysis.
The production of Salinosporamide A, NPI-0047 and NPI-2065 was monitored by Agilent HP1100 HPLC using an ACE C-18 reversed-phase column (4.6×150 mm), and solvent system consisting of water (0.01% TFA) as solvent A and acetonitrile (0.01% TFA) as solvent B. The elution was started at 100% solvent A for 1 min, 100% solvent A to 35% solvent A gradient in 7 min, held at 35% solvent A for 11 min, 35% solvent A to 100% solvent B in 8 min and held at 100% solvent B for 9 min at a flow rate of 1.5 mL/min with the detector wavelength set at 210 nm and column temperature 35° C.
The first seed culture (100 mL medium) in a 500-mL Erlenmeyer flask was incubated at 250 rpm and 28° C. for 72 hours. 20 mL of the first seed culture was inoculated into second seed culture (400 ml medium) in a 2.8 L Fernbach flask with the same medium as the first seed culture. The second seed culture was incubated at 250 rpm and 28° C. for 48 hours. 200 mL of the […] was inoculated into a B. Braun B-Plus 5 L fermentor containing 4 L third seed medium with the same composition as the first and second seed medium. The thirds seed fermentor culture was incubated at 300 rpm and 28° C. with the airflow rate of 2 L/min for 36 hours. 1.5 L of the third seed culture was inoculated into 26 L production medium in a 42 L B. Braun Biostat-C fermentor.
The production fermentor culture was operated at 200 rpm and 28° C. with the airflow rate of 13 L/min.
as §4, with “3.5 mL of the fermentation culture was mixed with equal volume of EtOAc in an extraction tube to extract the various metabolites from the production culture. The mixture” for “The mixture”, “was shaken on the shaker for 1” for “was shaken for 1”
Alternatively, the production of the compounds can be achieved in a 42 L fermentor system using strain NPS21184. […]

[4] = Ex.3, cobalt in seed and production media with INSTANT OCEAN vs no cobalt

Compound	reduction of production by cobalt [1] [%]	reduction of production by cobalt [2] [%]	decrease of production [3] [%]	decrease of production, on average [3, 4] [%]	increase of production, on average [3, 4] [%]
CC[C@H]1C(=O)N[C@@]2([C@@H](O)[C@@H]3C=CCCC3)C(=O)O[C@@]12C [NPI-0047, Salinosporamide B]	52	48	47.3	48.1	–
C[C@@]12OC(=O)[C@]1([C@@H](O)[C@@H]1C=CCCC1)NC(=O)[C@H]2CCCl [NPI-2065]	–	–	7.9	23.2	–
C[C@@]12OC(=O)[C@]1([C@@H](O)[C@@H]1C=CCCC1)NC(=O)[C@@H]2CCCl [Salinosporamide A]	–	–	8.7	–	14.3

— patent US10011814B2, “Salt formulations for the fermentation of marine microorganisms” (Triphase Research and Development I Corp., priority 2006, dated 2018)
